According to patent US20260250318A1, “COMPOSITIONS AND METHODS FOR CROSSING THE BLOOD BRAIN BARRIER” (VOYAGER THERAPEUTICS, INC., priority 2022, published 2026):

These sequences were tested on brain, spinal cord, and DRG of the NHPs (assay: NGS fold enrichment of synthetic library (passage 3) in NHPs, first cross-species screen). Conditions: synthetic library passage 3, intravenous, RNA NGS, brain of NHPs, relative to wild-type AAV9.
Assay type: in vivo, cynomolgus macaques (Macaca fascicularis)
In short: (§1)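 Passage-3 synthetic capsid library given intravenously […] to NHPs (2-4 years) and BALB/c or C57Bl/6 mice (n=3, 6-8 weeks). After e.g. 28 days, tissue RNA was RT-PCR amplified and NGS-sequenced; values are fold enrichment of each variant relative to wild-type AAV9.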

Sequence | Fold enrichment over AAV9 in the brain of NHPs [fold]
GSGQNQQTNRGNPM | 1.860
GSGQNQQTHGGLRD | 1.519
GSGTLYPQSQNQQT | 2.761
GSGQNRAQSRFQQT | 3.043
GSGQNSYSHTSQQT | 1.765
GSGYSMSQAQNQQT | 2.250
GSLSSHGVGQNQQT | 1.911
GSGQDMKQHHNQQT | 1.501
GSGAMPSHGQNQQT | 1.915
GSHTLVVSGQNQQT | 1.069
GGYHSQTSGQNQQT | 1.978
GSLKPTTLGQNQQT | 1.840
GSGSPRQLSQNQQT | 1.621
GSGQNERHLVLQQT | 1.019
GSGQNQQTSGVLTL | 1.553
GSGQAAKSSQNQQT | 1.036
GSGGTSVHQQNQQT | 1.629
GSGMPQSHIQNQQT | 3.289
GNVTTQKSGQNQQT | 1.122
GLSNPMPSGQNQQT | 2.280
GSGQNQQTPGAHKT | 1.105
GSGQSYTMTQNQQT | 2.136

Same assay, conditions: synthetic library passage 3, intravenous, RNA NGS, spinal cord of NHPs, relative to wild-type AAV9

Sequence | Fold enrichment over AAV9 in the spinal cord of NHPs [fold]
GSGQNQQTNRGNPM | 3.402
GSGQNQQTHGGLRD | 6.487
GSGTLYPQSQNQQT | 5.558
GSGQNRAQSRFQQT | 0.000
GSGQNSYSHTSQQT | 2.262
GSGYSMSQAQNQQT | 4.479
GSLSSHGVGQNQQT | 7.498
GSGQDMKQHHNQQT | 1.638
GSGAMPSHGQNQQT | 0.000
GSHTLVVSGQNQQT | 1.535
GGYHSQTSGQNQQT | 2.642
GSLKPTTLGQNQQT | 0.476
GSGSPRQLSQNQQT | 0.873
GSGQNERHLVLQQT | 5.354
GSGQNQQTSGVLTL | 0.000
GSGQAAKSSQNQQT | 0.681
GSGGTSVHQQNQQT | 0.000
GSGMPQSHIQNQQT | 11.609
GNVTTQKSGQNQQT | 2.546
GLSNPMPSGQNQQT | 6.033
GSGQNQQTPGAHKT | 3.827
GSGQSYTMTQNQQT | 6.755

Same assay, conditions: synthetic library passage 3, intravenous, RNA from brain of NHPs, NGS, relative to wild-type AAV9

Sequence | Fold enrichment over AAV9 in the brain of NHPs [fold]
GSGISSRNMQNQQT | 1.291
GSGQLVLTLQNQQT | 1.143
GSGQLPRQMTNQQT | 1.376
GSGQNQQTSQPLPG | 1.141
GSGQVAYAQGNQQT | 1.259
GSGQDVTKTGNQQT | 1.173
GSDQNQQLGYSKQT | 1.283
GSGQNQQTGQHMRV | 1.286
GSGQNQQTAHAFNI | 1.132
GSGQYRSSSDNQQT | 1.369

Same assay, conditions: synthetic library passage 3, intravenous, RNA from spinal cord of NHPs, NGS, relative to wild-type AAV9

Sequence | Fold enrichment over AAV9 in the spinal cord of NHPs [fold]
GSGISSRNMQNQQT | 6.328
GSGQLVLTLQNQQT | 0.000
GSGQLPRQMTNQQT | 3.550
GSGQNQQTSQPLPG | 0.080
GSGQVAYAQGNQQT | 1.309
GSGQDVTKTGNQQT | 4.523
GSDQNQQLGYSKQT | 0.000
GSGQNQQTGQHMRV | 4.161
GSGQNQQTAHAFNI | 3.404
GSGQYRSSSDNQQT | 6.209

What follows are sequences tested on brain (assay: NGS fold enrichment of synthetic library (passage 3) in BALB/c mice, first cross-species screen). Conditions: synthetic library passage 3, intravenous, RNA NGS, brain of BALB/c mice, relative to wild-type AAV9.
Assay type: in vivo
In short: as §1

Sequence | Fold enrichment over AAV9 in the brain of Mice (BALB/c) [fold]
GSGQNQQTNRGNPM | 1.098
GSGQNQQTHGGLRD | 1.298
GSGTLYPQSQNQQT | 0.160
GSGQNRAQSRFQQT | 1.788
GSGQNSYSHTSQQT | 0.658
GSGYSMSQAQNQQT | 0.329
GSLSSHGVGQNQQT | 0.804
GSGQDMKQHHNQQT | 0.239
GSGAMPSHGQNQQT | 0.912
GSHTLVVSGQNQQT | 0.748
GGYHSQTSGQNQQT | 1.525
GSLKPTTLGQNQQT | 0.220
GSGSPRQLSQNQQT | 0.273
GSGQNERHLVLQQT | 0.150
GSGQNQQTSGVLTL | 0.782
GSGQAAKSSQNQQT | 0.737
GSGGTSVHQQNQQT | 0.195
GSGMPQSHIQNQQT | 0.334
GNVTTQKSGQNQQT | 0.922
GLSNPMPSGQNQQT | 0.829
GSGQNQQTPGAHKT | 0.277
GSGQSYTMTQNQQT | 0.231

Same assay, conditions: synthetic library passage 3, intravenous, RNA from brain of BALB/c mice, NGS, relative to wild-type AAV9

Sequence | Fold enrichment over AAV9 in the brain of Mice (BALB/c) [fold]
GSGISSRNMQNQQT | 0.560
GSGQLVLTLQNQQT | 0.336
GSGQLPRQMTNQQT | 0.562
GSGQNQQTSQPLPG | 0.530
GSGQVAYAQGNQQT | 0.313
GSGQDVTKTGNQQT | 0.035
GSDQNQQLGYSKQT | 0.660
GSGQNQQTGQHMRV | 1.635
GSGQNQQTAHAFNI | 0.729
GSGQYRSSSDNQQT | 0.409

Each sequence was assayed on brain (assay: NGS fold enrichment of synthetic library (passage 3) in C57Bl/6 mice, first cross-species screen). Conditions: synthetic library passage 3, intravenous, RNA NGS, brain of C57Bl/6 mice, relative to wild-type AAV9.
Assay type: in vivo
In short: as §1

Sequence | Fold enrichment over AAV9 in the brain of Mice (C57Bl/6) [fold]
GSGQNQQTNRGNPM | 1.349
GSGQNQQTHGGLRD | 1.913
GSGTLYPQSQNQQT | 0.324
GSGQNRAQSRFQQT | 0.619
GSGQNSYSHTSQQT | 1.130
GSGYSMSQAQNQQT | 0.519
GSLSSHGVGQNQQT | 1.218
GSGQDMKQHHNQQT | 0.358
GSGAMPSHGQNQQT | 1.142
GSHTLVVSGQNQQT | 0.671
GGYHSQTSGQNQQT | 1.740
GSLKPTTLGQNQQT | 0.175
GSGSPRQLSQNQQT | 0.520
GSGQNERHLVLQQT | 0.416
GSGQNQQTSGVLTL | 1.104
GSGQAAKSSQNQQT | 0.778
GSGGTSVHQQNQQT | 0.585
GSGMPQSHIQNQQT | 0.514
GNVTTQKSGQNQQT | 1.215
GLSNPMPSGQNQQT | 1.190
GSGQNQQTPGAHKT | 0.957
GSGQSYTMTQNQQT | 0.297

Same assay, conditions: synthetic library passage 3, intravenous, RNA from brain of C57Bl/6 mice, NGS, relative to wild-type AAV9

Sequence | Fold enrichment over AAV9 in the brain of Mice (C57Bl/6) [fold]
GSGISSRNMQNQQT | 1.671
GSGQLVLTLQNQQT | 0.336
GSGQLPRQMTNQQT | 0.400
GSGQNQQTSQPLPG | 0.748
GSGQVAYAQGNQQT | 0.734
GSGQDVTKTGNQQT | 0.531
GSDQNQQLGYSKQT | 0.853
GSGQNQQTGQHMRV | 1.839
GSGQNQQTAHAFNI | 0.699
GSGQYRSSSDNQQT | 0.681
